{"source": "patent US9771394B2", "about": "“Antimicrobial polymyxins for treatment of bacterial infections” (priority 2014, dated 2017)", "key": {"[1]": {"test_system": "P. aeruginosa", "assay": "P. aeruginosa thigh infection mouse model, IV dosing", "assay_type": "in vivo, Pseudomonas aeruginosa", "conditions": "CFU change at 12 h vs no treatment control, PMB values in parenthesis side-by-side", "excerpt": "(§1) A lower ED50 value indicates a higher therapeutic efficacy of the drug. The number of surviving animals (from the total number of infected animals used at a given drug dose) is another indicator of efficacy. […] In thigh and lung infection models, a greater reduction in the bacterial colony-forming units (CFU) indicates stronger beneficial therapeutic effect (more bacterial eradication), while a lower CFU reduction or an increase in CFU value indicates a lower effect (less bacterial eradication), or an absence of the therapeutic effect."}, "[2]": {"test_system": "P. aeruginosa PAE 1001", "assay_type": "cell-based, Pseudomonas aeruginosa", "excerpt": "(§2) In vitro activity of compounds provided herein may be assessed by standard testing procedures such as the determination of minimum inhibitory concentration (MIC, μg/mL) just as described in “Methods for Dilution Antimicrobial Susceptibility Tests for Bacteria That Grow Aerobically; Approved Standard—Ninth Edition,” published in 2012 by the Clinical and Laboratory Standards Institute, Wayne, Pa., USA. Thus, bacterial colonies grown overnight on Mueller-Hinton Agar plate were selected and suspended in sterile saline to a turbidity of about 80% transmittance, as measured by a spectrophotometer. The suspension was diluted 200-fold with cation-adjusted Mueller-Hinton broth to serve as the inoculum for testing. Two-fold serial dilutions of the test compound were performed in 96-well master plate to arrive at desired concentration. Samples of 10 microliter from each well of the master plate were transferred into respective wells of 96-well assay plate. Bacterial inoculum (90 microliter) was introduced into each well of the assay plate. The assay plate was placed in the incubator at 35° C. for about 24 h (without agitation) followed by the MIC determination. MIC values were determined based on the presence or absence of bacterial growth in wells at the given test agent concentration. MIC value is defined as the lowest concentration of test antibiotic that prevents visible bacterial growth.\n(§3) The useful activity of exemplary compounds described herein against Gram-negative pathogens Pseudomonas aeruginosa, Escherichia coli, or Klebsiela pneumoniae is illustrated by the MIC data of Table 1."}, "[3]": {"test_system": "E. coli WECO 1003", "assay_type": "cell-based, Escherichia coli", "excerpt": "as §2, §3"}, "[4]": {"test_system": "P. aeruginosa", "assay": "P. aeruginosa lung infection (pneumonia) mouse model, SC dosing", "assay_type": "in vivo, Pseudomonas aeruginosa", "conditions": "for Relative CFU count, vs. PMB: mouse lung infection, 10 mg/kg; for P. aeruginosa Lung infection model ΔlogCFU at 10 mg/kg: mouse, CFU change at 24 h vs starting inoculum", "excerpt": "as §1"}, "[5]": {"test_system": "human HK-2 cell", "assay": "Human HK-2 cell cytotoxicity assay (in vitro nephrotoxicity)", "assay_type": "cell-based", "excerpt": "(§4) Nephrotoxicity of polymyxins could be determined in vitro using human renal […] (HK-2) cytotoxicity assay, analogously to that described, for example, by Keirstead et al. in Toxicol. Sci., 2014, vol. 137, pp. 278-291. In vivo, nephrotoxicity could be determined using urine biomarker assays, such as clinically validated neutrophil gelatinase-associated lipocalin (NGAL) assay described, for example by Devarajan in Scand. J. Clin. Lab. Invest. Suppl., 2008, vol. […], pp. 89-94."}, "[6]": {"assay": "Stability in human plasma at 37° C.", "assay_type": "in vitro ADME", "method": "Exemplary compounds of this invention were tested for stability in human plasma at 37° C., replicating in vivo conditions of mammalian blood. Plasma stability for select compounds was performed as follows. Human plasma (K2 EDTA) was obtained from Bioreclamation. The assay was carried out in 96-well microtiter plates. Test compounds were incubated in duplicate at 37° C. in the presence of plasma. Reaction mixtures (25 μL) contained a final concentration of 25 μM test compound. The extent of metabolism was calculated as the disappearance of the test compound over time. Eucatropine was included as a positive control to verify assay performance. At each given time point, 100 μL of quench solution (100% MeCN with 0.1% HCOOH) with internal standard was transferred to each well. Plates were sealed, vortexed, and centrifuged at 4° C. for 15 minutes at 4,000 rpm. The supernatant was transferred to fresh plates for LC/MS/MS analysis. The formation of a potential metabolite was monitored in all samples. The samples were analyzed on LC/MS/MS using an AB Sciex API 4000 instrument, coupled to a Shimadzu LC-20AD LC Pump system. Analytical samples were separated using a Waters Atlantis T3 dC18 reverse phase HPLC column (20 mm×2.1 mm) at […] a flow rate of 0.5 mL/min, eluting with 0.1% aq. HCOOH and 0.1% HCOOH in MeCN (using gradient from 2% to 98% of the latter). Remaining test compounds were quantified via MS/MS ion current."}, "[7]": {"test_system": "K. pneumoniae KPN1004", "assay_type": "cell-based, Klebsiela pneumoniae", "excerpt": "as §2, §3"}, "[8]": {"test_system": "E. coli", "assay": "E. coli septicemia (systemic) mouse model, IV dosing", "assay_type": "in vivo, Escherichia coli", "conditions": "PMB values are side-by-side comparator; for number (A) of surviving animals out of total (B) mice, A/B: at 5 mg/kg", "excerpt": "as §1"}, "[9]": {"test_system": "Gram-negative pathogens Pseudomonas aeruginosa, Escherichia coli, or Klebsiela pneumoniae", "assay": "MIC, Gram-negative panel of Table 1", "assay_type": "cell-based", "excerpt": "In vitro activity of compounds provided herein may be assessed by standard testing procedures such as the determination of minimum inhibitory concentration (MIC, μg/mL) just as described in “Methods for Dilution Antimicrobial Susceptibility Tests for Bacteria That Grow Aerobically; Approved Standard—Ninth Edition,” published in 2012 by the Clinical and Laboratory Standards Institute, Wayne, Pa., USA. Thus, bacterial colonies grown overnight on Mueller-Hinton Agar plate were selected and suspended in sterile saline to a turbidity of about 80% transmittance, as measured by a spectrophotometer. The suspension was diluted 200-fold with cation-adjusted Mueller-Hinton broth to serve as the inoculum for testing. Two-fold serial dilutions of the test compound were performed in 96-well master plate to arrive at desired concentration. Samples of 10 microliter from each well of the master plate were transferred into respective wells of 96-well assay plate. Bacterial inoculum (90 microliter) was introduced into each well of the assay plate. The assay plate was placed in the incubator at 35° C. for about 24 h (without agitation) followed by the MIC determination. MIC values were determined based on the presence or absence of bacterial growth in wells at the given test agent concentration. MIC value is defined as the lowest concentration of test antibiotic that prevents visible bacterial growth. […]"}, "[10]": {"test_system": "neutrophil gelatinase-associated lipocalin (NGAL)", "assay": "Rat urine NGAL biomarker assay (in vivo nephrotoxicity)", "conditions": "repeated dose, 25 mg/kg/day QID, SC, Low = signal similar to the background", "excerpt": "as §4"}, "[11]": {"conditions": "35° C., about 24 h, cation-adjusted Mueller-Hinton broth"}}, "note": "Where “and” joins values, the source holds several entries; their conditions need not be identical. Equal entries are not always repeated. Where two headings read alike, the source gives them in different places. Marks after values point to notes of the source that are not given here. Starred links: 1 amine or outer side, 2 acyl side, 3 side chain; linkers in the order of their positions; H or OH if unused. Positions of bridges follow the written chain, without caps; N, C: chain ends. Non-standard residues stand in square brackets, D forms with d. Residues, ends and D or L forms follow the SMILES beside them. ξ: configuration not given here. *: point of attachment. Thr(3ξ) = CC(O)[C@H](N)C(=O)O; Suc = O=C(CCC(=O)[*:2])[*:1]; X2 = CCCC(C)OC(=O)CCC(=O)*; X5 = CCCCOP(=O)(O)CC(=O)*; Dab = NCC[C@H](N)C(=O)O"}
{"compound": "CCCC(C)OC(=O)CCC(=O)N[C@@H](CCN)C(=O)N[C@H](C(=O)N[C@@H](CCN)C(=O)N[C@H]1CCNC(=O)[C@H](C(C)O)NC(=O)[C@H](CCN)NC(=O)[C@H](CCN)NC(=O)[C@H](CC(C)C)NC(=O)[C@@H](Cc2ccccc2)NC(=O)[C@H](CCN)NC1=O)C(C)O", "note": "(stereo partly shown) [Example 18] (X2-[Dab][Thr(3ξ)][Dab][Dab][Dab][dF]L[Dab][Dab][Thr(3ξ)]; lactam 4-C)", "values": [{"measurement": "P. aeruginosa Thigh model, IV dosing ΔlogCFU at 5 mg/kg", "setting": "[1]", "result": "−1.29"}, {"measurement": "Antibacterial activity (MIC) P. aeruginosa PAE 1001", "setting": "[2]; PAE 1001, 24 h", "result": 2, "unit": "µg/mL"}, {"measurement": "Antibacterial activity (MIC) E. coli WECO 1003", "setting": "[3]; WECO 1003, 24 h", "result": 2, "unit": "µg/mL"}, {"measurement": "Relative CFU count, vs. PMB", "setting": "[4]", "result": "4.8 × 10^−6"}, {"measurement": "P. aeruginosa Lung infection model ΔlogCFU at 10 mg/kg", "setting": "[4]", "result": "−2.70"}, {"measurement": "HK-2 cytotoxicity class", "setting": "[5]", "result": "Class 4"}, {"measurement": "IC50", "setting": "[5]", "result": "> 200", "unit": "µM"}, {"measurement": "remaining at 1 h, 25 μM", "setting": "[6]; human, plasma", "result": 66, "unit": "%"}, {"measurement": "remaining at 4 h, 25 μM", "setting": "[6]; human, plasma", "result": 18, "unit": "%"}, {"measurement": "Antibacterial activity (MIC) K. pneumoniae KPN1004", "setting": "[7]; KPN1004, 24 h", "result": 4, "unit": "µg/mL"}, {"measurement": "E. coli Systemic model, IV dosing ED50", "setting": "[8]", "result": 7.5, "unit": "mg/kg"}, {"measurement": "number (A) of surviving animals out of total (B) mice, A/B", "setting": "[8]", "result": "3/6"}]}
{"compound": "CC(C)C[C@@H]1NC(=O)[C@@H](Cc2ccccc2)NC(=O)[C@H](CCN)NC(=O)[C@@H](NC(=O)[C@H](CCN)NC(=O)[C@@H](NC(=O)[C@H](CCN)NC(=O)CCC(=O)O)C(C)O)CCNC(=O)[C@H](C(C)O)NC(=O)[C@H](CCN)NC(=O)[C@H](CCN)NC1=O", "note": "(stereo partly shown) [Example 19] (Suc-[Dab][Thr(3ξ)][Dab][Dab][Dab][dF]L[Dab][Dab][Thr(3ξ)]; lactam 4-C)", "values": [{"measurement": "P. aeruginosa Thigh model, IV dosing ΔlogCFU at 5 mg/kg", "setting": "[1]", "result": "−0.14"}, {"measurement": "Antibacterial activity (MIC) P. aeruginosa PAE 1001", "setting": "[2]; PAE 1001, 24 h", "result": 4, "unit": "µg/mL"}, {"measurement": "Antibacterial activity (MIC) E. coli WECO 1003", "setting": "[3]; WECO 1003, 24 h", "result": ">32", "unit": "µg/mL"}, {"measurement": "HK-2 cytotoxicity class", "setting": "[5]", "result": "Class 4"}, {"measurement": "IC50", "setting": "[5]", "result": "> 200", "unit": "µM"}, {"measurement": "Antibacterial activity (MIC) K. pneumoniae KPN1004", "setting": "[7]; KPN1004, 24 h", "result": ">32", "unit": "µg/mL"}, {"measurement": "antibacterial activity in words (MIC, Table 1)", "setting": "[9]; Example 19: against two Gram-negative pathogens in the test", "result": "essentially inactive"}]}
{"compound": "CCCCOP(=O)(O)CC(=O)N[C@@H](CCN)C(=O)N[C@H](C(=O)N[C@@H](CCN)C(=O)N[C@H]1CCNC(=O)[C@H](C(C)O)NC(=O)[C@H](CCN)NC(=O)[C@H](CCN)NC(=O)[C@H](CC(C)C)NC(=O)[C@@H](Cc2ccccc2)NC(=O)[C@H](CCN)NC1=O)C(C)O", "note": "(stereo partly shown) [Example 33] (X5-[Dab][Thr(3ξ)][Dab][Dab][Dab][dF]L[Dab][Dab][Thr(3ξ)]; lactam 4-C)", "values": [{"measurement": "Antibacterial activity (MIC) P. aeruginosa PAE 1001", "setting": "[2]; [11]", "result": 8, "unit": "µg/mL"}, {"measurement": "Antibacterial activity (MIC) E. coli WECO 1003", "setting": "[3]; [11]", "result": 8, "unit": "µg/mL"}, {"measurement": "Antibacterial activity (MIC) K. pneumoniae KPN1004", "setting": "[7]; [11]", "result": 8, "unit": "µg/mL"}, {"measurement": "fold less active than polymyxin B comparator (MIC)", "setting": "[9]; vs polymyxin B", "result": "about 2 fold"}]}
{"compound": "polymyxin B [reference compound]", "values": [{"measurement": "P. aeruginosa Thigh model, IV dosing ΔlogCFU at 5 mg/kg", "setting": "[1]; listed as Polymyxin B (PMB)", "result": "−1.49 to −3.33"}, {"measurement": "Antibacterial activity (MIC) P. aeruginosa PAE 1001", "setting": "[2]; [11]", "result": "2-4^a μg/mL"}, {"measurement": "Antibacterial activity (MIC) E. coli WECO 1003", "setting": "[3]; [11]", "result": "2-4^a μg/mL"}, {"measurement": "Relative CFU count, vs. PMB", "setting": "[4]", "result": 1}, {"measurement": "P. aeruginosa Lung infection model ΔlogCFU at 10 mg/kg", "setting": "[4]", "result": "+2.61"}, {"measurement": "HK-2 cytotoxicity class", "setting": "[5]; HK-2 cytotoxicity, Eurofins Cerep", "result": "Class 1"}, {"measurement": "IC50", "setting": "[5]; HK-2 cytotoxicity, Eurofins Cerep, read-out: In vitro: human HK-2 cell assay IC50", "result": 82, "unit": "µM"}, {"measurement": "Compound remaining, % T = 1.0 h", "setting": "[6]; human plasma, 37° C., 25 μM, 1.0 h", "result": "100^a^ %"}, {"measurement": "Compound remaining, % T = 4.0 h", "setting": "[6]; human plasma, 37° C., 25 μM, 4.0 h", "result": "100^a %"}, {"measurement": "Antibacterial activity (MIC) K. pneumoniae KPN1004", "setting": "[7]; [11]", "result": "2-4^a μg/mL"}, {"measurement": "In vivo: rat urine biomarker NGAL", "setting": "[10]", "result": "High: above detection"}, {"measurement": "E. coli Systemic model, IV dosing ED50", "setting": "[8]; listed as PMB", "result": "4.6 mg/kg and 3.9 mg/kg and 2.5 mg/kg"}, {"measurement": "E. coli Systemic model, IV dosing ED50", "setting": "[8]; listed as Polymyxin B (PMB)", "result": "4 to 7", "unit": "mg/kg"}, {"measurement": "number (A) of surviving animals out of total (B) mice, A/B", "setting": "[8]; listed as PMB", "result": "2/6 and 5/6 and 3/6"}]}
